According to US7772260B2, “Imidazo[2,1-b]-1,3,4-thiadiazole sulfonamides” (Aegera Therapeutics Inc., priority 2001, dated 2010):
Where a name gives a salt, the structure may show the parent alone.

How the values were obtained:
[1] = system: SCG neurons; test: cells; format: cell-based, Sprague Dawley rats; conditions: for IC50: Rattus norvegicus, Neuron, Taxol™ (50 ng/mL), viability 48 hours later, MTS, read-out: IC(50), protection of SCG neurons from Taxol killing; for inhibition of Taxol™ induced killing of SCGs: concentrations as high as 50 μM
Protocol: Taxol™ is regularly used in breast cancer chemotherapy. In cancer cells Taxol™ binds to the cyto-skeletal protein tubulin, thereby inhibiting normal microtubular assembly and inducing cellular apoptosis. Despite its potency as an anti-tumour agent, Taxol™ is also toxic to neurons, inducing dose limiting peripheral neuropathies. The addition of Taxol™ (100 ng/mL) to cultured SCG neurons induces the degradation or loss of upwards of 80% of the neurons.
FIG. 1 illustrates the protection provided by compound 1 (referred to here as AEG3482) against Taxol™ induced killing. PI Sprague Dawley rat SCG neurons were cultured and incubated with NGF (50 ng/mL) for 5 days.

[2] = target: CA II (Homo sapiens, UniProt P00918); test: CA II inhibition; format: biochemical; conditions: read-out: IC(50), CA II inhibition
Protocol: CA II inhabition was measured using the protocol described by Pocker, Y.'Stone, J. Biochemistry 1967, 6, 668.

SMILES	IC50 [2] [µM]	IC50 [1] [µM]	inhibition of Taxol™ induced killing of SCGs [1]
NS(=O)(=O)c1nn2cc(-c3ccc(F)cc3)nc2s1 [Compound 4, 6-(4-Fluorophenyl)imidazo[2,1-b]-1,3,4-thiadiazole-2-sulfonamide]	0.217	5	–
NS(=O)(=O)c1nn2cc(-c3ccc(F)c(F)c3)nc2s1 [Compound 5, 6-(3,4-Difluorophenyl)imidazo[2,1-b]-1,3,4-thiadiazole-2-sulfonamide]	0.192	5	–
NS(=O)(=O)c1nn2cc(-c3c(F)c(F)c(F)c(F)c3F)nc2s1 [Compound 6, 6-(2,3,4,5,6-Pentafluorophenyl)imidazo[2,1-b]-1,3,4-thiadiazole-2-sulfonamide]	0.164	3	–
CCSc1c(F)c(F)c(-c2cn3nc(S(N)(=O)=O)sc3n2)c(F)c1F [Compound 7, 6-(4-Ethylthio-2,3,5,6-tetrafluorophenyl)imidazo[2,1-b]-1,3,4-thiadiazole-2-sulfonamide]	0.581	4	–
NS(=O)(=O)c1nn2cc(-c3c(F)c(F)c(SCc4ccccc4)c(F)c3F)nc2s1 [Compound 8, 6-(4-Benzylthio-2,3,5,6-tetrafluorophenyl)imidazo[2,1-b]-1,3,4-thiadiazole-2-sulfonamide]	1.47	5	–
NS(=O)(=O)c1nn2cc(-c3ccc(Cl)c(Cl)c3)nc2s1 [Compound 11, 6-(3,4-Dichlorophenyl)imidazo[2,1-b]-1,3,4-thiadiazole-2-sulfonamide]	1.8	3	–
NS(=O)(=O)c1nn2cc(-c3ccc(Cl)c(Cl)c3Cl)nc2s1 [Compound 12, 6-(2,3,4-trichlorophenyl)imidazo[2,1-b]-1,3,4-thiadiazole-2-sulfonamide]	1.59	5	–
NS(=O)(=O)c1nn2cc(-c3cccc(Br)c3)nc2s1 [Compound 13, 6-(3-bromophenyl)imidazo[2,1-b]-1,3,4-thiadiazole-2-sulfonamide]	4.05	7	–
NS(=O)(=O)c1nn2cc(-c3ccc(Br)cc3)nc2s1 [Compound 14, 6-(4-Bromophenyl)-imidazo[2,1-b]-1,3,4-thiadiazole-2-sulfonamide]	0.198	5	–
NS(=O)(=O)c1nn2c(Br)c(C(F)(F)F)nc2s1 [Compound 134, 5-Bromo-6-trifluoromethylimidazo[2,1-b]-1,3,4-thiadiazole-2-sulfonamide]	–	1	–
NS(=O)(=O)c1nn2c(Sc3ccccc3)c(-c3ccc4ccccc4c3)nc2s1 [Compound 135, 5-Thiophenyl-6-(2-naphthyl)imidazo[2,1-b]-1,3,4-thiadiazole-2-sulfonamide]	–	7	–
Nc1nnc(Sc2c(-c3ccc4ccccc4c3)nc3sc(S(N)(=O)=O)nn23)s1 [Compound 136]	–	5	–
CNS(=O)(=O)c1nn2cc(-c3c(F)c(F)c(F)c(F)c3F)nc2s1 [Compound 138, 6-(2,3,4,5,6-pentafluorophenyl)imidazo[2,1-b]-1,3,4-thiadiazole-2-N-methylsulfonamide]	–	2	–
CN(C)S(=O)(=O)c1nn2cc(-c3c(F)c(F)c(F)c(F)c3F)nc2s1 [Compound 140, 6-(2,3,4,5,6-pentafluorophenyl)imidazo[2,1-b]-1,3,4-thiadiazole-2-N,N-dimethylsulfonamide]	–	5	–
CCN(CC)S(=O)(=O)c1nn2cc(-c3cccc(OC)c3)nc2s1 [Compound 141]	–	> 30	–
CN(C)S(=O)(=O)c1nn2cc(-c3ccc(Br)cc3)nc2s1 [Compound 143, 6-(4-Bromophenyl)imidazo[2,1-b]-1,3,4-thiadiazole-2-N,N-dimethylsulfonamide]	–	10	–
CN(C)S(=O)(=O)c1nn2c(Br)c(-c3ccc(Br)cc3)nc2s1 [Compound 144, hydrobromide]	–	15	–
CN(C)S(=O)(=O)c1nn2cc(-c3cccc(O)c3)nc2s1 [Compound 145]	–	20	–
CN(C)S(=O)(=O)c1nn2cc(-c3cccc(OC(=O)c4ccccc4)c3)nc2s1 [Compound 146, 6-(3-Benzoyloxyphenyl)imidazo[2,1-b]-1,3,4-thiadiazole-2-N,N-dimethylsulfonamide]	–	20	–
CN(C)S(=O)(=O)c1nn2cc(-c3ccc4ccccc4c3)nc2s1 [Compound 147, 6-(2-Naphthyl)imidazo[2,1-b]-1,3,4-thiadiazole-2-N,N-dimethylsulfonamide]	–	17	–
[N-]=[N+]=Nc1c(F)c(F)c(-c2cn3nc(S(N)(=O)=O)sc3n2)c(F)c1F [Compound 151, 6-(4-Azido-2,3,5,6-tetraflourophenyl)imidazo[2,1-b]-1,3,4-thiadiazole-2-sulfonamide]	–	2	–
CN(C)S(=O)(=O)c1nn2cc(-c3c(F)c(F)c(N=[N+]=[N-])c(F)c3F)nc2s1 [Compound 152, 6-(4-azido-2,3,5,6-pentafluorophenyl)imidazo[2,1-b]-1,3,4-thiadiazole-2-N,N-dimethylsulfonamide]	–	2	–
NS(=O)(=O)c1nn2cc(-c3ccc([N+](=O)[O-])cc3)nc2s1 [Compound 153, 6-(4-Nitrophenyl)imidazo[2,1-b]-1,3,4-thiadiazole-2-sulfonamide]	–	5	–
CCN[C@H]1C[C@H](C)S(=O)(=O)c2sc(S(N)(=O)=O)cc21 [Dorzolamide, reference compound]	–	–	failed to significantly inhibit
CC(=O)Nc1ccc(S(=O)(=O)Nc2nnc(S(N)(=O)=O)s2)cc1 [N-acetylaminobenzolamide, reference compound]	–	–	failed to significantly inhibit
CC(=O)Nc1nnc(S(N)(=O)=O)s1 [acetazolamide, reference compound]	–	–	failed to significantly inhibit
Nc1ccc(S(=O)(=O)Nc2nnc(S(N)(=O)=O)s2)cc1 [aminobenzolamide, reference compound]	–	–	failed to significantly inhibit
CC(=O)/N=c1/sc(S(N)(=O)=O)nn1C [methazolamide, reference compound]	–	–	failed to significantly inhibit

Further lines, with some results ahead:

IC50 [2] [µM]	SMILES	IC50 [1] [µM]	inhibition of Taxol™ induced killing of SCGs [1]
0.152	COc1ccccc1-c1cn2nc(S(N)(=O)=O)sc2n1 [Compound 15, 6-(2-Methoxyphenyl)imidazo[2,1-b]-1,3,4-thiadiazole-2-sulfonamide]	10	–
0.15	COc1cccc(-c2cn3nc(S(N)(=O)=O)sc3n2)c1 [Compound 16, 6-(3-Methoxyphenyl)imidazo[2,1-b]-1,3,4-thiadiazole-2-sulfonamide]	5	–
0.179	COc1ccc(-c2cn3nc(S(N)(=O)=O)sc3n2)cc1 [Compound 17, 6-(4-Methoxyphenyl)imidazo[2,1-b]-1,3,4-thiadiazole-2-sulfonamide]	3	–
0.337	COc1ccc(OC)c(-c2cn3nc(S(N)(=O)=O)sc3n2)c1 [Compound 18, 6-(2,5-Dimethoxyphenyl)imidazo[2,1-b]-1,3,4-thiadiazole-2-sulfonamide]	20	–
0.373	COc1ccc(-c2cn3nc(S(N)(=O)=O)sc3n2)c(OC)c1 [Compound 19, 6-(2,4-Dimethoxyphenyl)imidazo[2,1-b]-1,3,4-thiadiazole-2-sulfonamide]	15	–
0.404	NS(=O)(=O)c1nn2cc(-c3ccc4c(c3)OCO4)nc2s1 [Compound 20, 6-(1,3-Benzodioxol-5-yl)imidazo[2,1-b]-1,3,4-thiadiazole-2-sulfonamide]	15	–
0.153	NS(=O)(=O)c1nn2cc(-c3ccc(O)c(O)c3)nc2s1 [Compound 22]	25	–
0.613	NS(=O)(=O)c1nn2cc(-c3cccc(OC(F)(F)F)c3)nc2s1 [Compound 24, 6-(3-trifloromethoxyphenyl)imidazo[2,1-b]-1,3,4-thiadiazole-2-sulfonamide]	7	–
0.302	NS(=O)(=O)c1nn2cc(-c3ccc(OC(F)(F)F)cc3)nc2s1 [Compound 25, 6-(4-trifloromethoxyphenyl)imidazo[2,1-b]-1,3,4-thiadiazole-2-sulfonamide]	5	–
0.199	NS(=O)(=O)c1nn2cc(-c3cccc([N+](=O)[O-])c3)nc2s1 [Compound 37, 6-(3-Nitrophenyl)imidazo[2,1-b]-1,3,4-thiadiazole-2-sulfonamide]	10	–
0.577	NS(=O)(=O)c1nn2cc(-c3ccc(Cl)c([N+](=O)[O-])c3)nc2s1 [Compound 38, 6-(3-nitro-4-chlorophenyl)imidazo[2,1-b]-1,3,4-thiadiazole-2-sulfonamide]	3	–
0.154	NS(=O)(=O)c1nn2cc(-c3ccc(C(=O)O)cc3)nc2s1 [Compound 39]	–	–
0.346	N#Cc1cccc(-c2cn3nc(S(N)(=O)=O)sc3n2)c1 [Compound 41, 6-(3-cyanophenyl)imidazo[2,1-b]-1,3,4-thiadiazole-2-sulfonamide]	3	–
0.272	N#Cc1ccc(-c2cn3nc(S(N)(=O)=O)sc3n2)cc1 [Compound 42, 6-(4-cyanophenyl)imidazo[2,1-b]-1,3,4-thiadiazole-2-sulfonamide]	3	–
0.886	CS(=O)(=O)c1ccc(-c2cn3nc(S(N)(=O)=O)sc3n2)cc1 [Compound 43, 6-(4-(methylsulfonyl)phenyl)imidazo[2,1-b]-1,3,4-thiadiazole-2-sulfonamide]	–	–
0.166	CCN(CC)S(=O)(=O)c1ccc(-c2cn3nc(S(N)(=O)=O)sc3n2)cc1 [Compound 45]	–	–
